Assay results: paper PMC3262907 (ACS Chemical Biology, 2011)

Key:
Assay type in all cases: cell-based
HCT116 cells = experiment: Proliferation assay; conditions: Homo sapiens, HCT-116, 96 h, read-out: Cell EC50 HCT 116
HT29 cells = experiment: Proliferation assay; conditions: Homo sapiens, HT-29, 96 h, read-out: Cell EC50 HT29
HeLa S3 cells = experiment: Proliferation assay; conditions: Homo sapiens, HeLa S3, 96 h, read-out: Cell EC50 HeLa
[1] = tested on: monopolar spindle formation; experiment: Spindle morphology by indirect immunofluorescence; conditions: cells arrested in metaphase

| EC50 (HCT116 cells) [nM] | EC50 (HT29 cells) [nM] | EC50 (HeLa S3 cells) [nM] | SMILES | concentration up to which no significant monopolarity resulted [1] [nM] |
| --- | --- | --- | --- | --- |
| 15.8 | 119 | 16.4 | Cc1cc(Nc2cc(N3CCN(C)CC3)nc(Sc3ccc(NC(=O)C4CC4)cc3)n2)[nH]n1 [Compound 32, VX680] | – |
| 17.4 | 239 | 3.8 | CCN(CCCOc1ccc2c(Nc3cc(CC(=O)Nc4cccc(F)c4)n[nH]3)ncnc2c1)CCOP(=O)(O)O [Compound 33, AZD1152] | > 500 |
| 50.3 | 688 | 214 | O=C(O)c1ccc(Nc2ncc3c(n2)-c2ccc(Cl)cc2C(c2c(F)cccc2F)=NC3)cc1 [Compound 34, MLN8054] | – |
